Laboratory results as given in US20040186166A1, “Cannabinoid analogs as peroxisome proliferator activated nuclear receptor gamma activators” (priority 2002, published 2004).

How the values were obtained:
[1] = target: T1, PPARγ / GST-DRIP205 (amino acids 527-970) (Mus musculus, UniProt P37238); experiment: GST pull-down assay, PPARγ with GST-DRIP205; assay type: binding; details: 20 μM AJA
T1 construct: made in house; host or cells: PPARγ1: reticulocyte lysate; GST-DRIP205: E. coli BL21, kept on glutathione-Sepharose beads
T1 sequence (P37238 31-505): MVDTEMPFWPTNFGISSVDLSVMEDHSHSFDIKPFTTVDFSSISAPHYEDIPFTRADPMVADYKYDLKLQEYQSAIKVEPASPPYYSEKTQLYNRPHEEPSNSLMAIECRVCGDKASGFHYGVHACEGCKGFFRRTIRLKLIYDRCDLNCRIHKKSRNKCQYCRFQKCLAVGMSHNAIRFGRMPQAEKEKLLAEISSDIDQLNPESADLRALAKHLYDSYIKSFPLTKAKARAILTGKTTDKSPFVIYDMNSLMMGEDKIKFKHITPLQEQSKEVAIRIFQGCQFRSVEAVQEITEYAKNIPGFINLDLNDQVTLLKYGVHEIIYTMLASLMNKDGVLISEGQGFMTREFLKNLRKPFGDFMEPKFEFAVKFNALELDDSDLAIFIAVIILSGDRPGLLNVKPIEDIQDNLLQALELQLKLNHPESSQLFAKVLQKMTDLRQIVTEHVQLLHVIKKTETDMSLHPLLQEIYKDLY
T1 sequence (Q15648 527-970 partner limits assumed): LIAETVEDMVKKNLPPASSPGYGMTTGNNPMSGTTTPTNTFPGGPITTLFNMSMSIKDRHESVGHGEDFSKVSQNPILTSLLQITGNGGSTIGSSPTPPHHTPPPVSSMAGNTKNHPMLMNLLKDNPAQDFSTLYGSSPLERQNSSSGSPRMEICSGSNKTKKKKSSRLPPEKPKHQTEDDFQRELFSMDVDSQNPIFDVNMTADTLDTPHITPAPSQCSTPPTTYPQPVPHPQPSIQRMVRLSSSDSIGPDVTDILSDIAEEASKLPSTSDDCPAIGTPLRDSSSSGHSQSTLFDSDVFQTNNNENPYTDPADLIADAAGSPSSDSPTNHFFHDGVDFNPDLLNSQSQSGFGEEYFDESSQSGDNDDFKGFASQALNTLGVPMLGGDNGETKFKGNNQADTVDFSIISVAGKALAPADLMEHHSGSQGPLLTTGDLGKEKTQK
Procedure: The glutathione S-transferase (GST)-DRIP205 (amino acid 527-970) and GST-RAC3 RID (amino acid 613-752) fusion proteins were expressed in BL21 cells by induction with 0.1 mM isopropyl-β-D-thiogalactopyranoside (IPTG) at room temperature for 4 hours. The bacterial pellet was resuspended in STE buffer (150 mM NaCl, 10 mM Tris pH 8.0, 1 mM EDTA), containing 5 mM dithiothreitol (DTT), 1 mM phenylmethlsulfonyl fluoride (PMSF) and 1.5% Sarkosyl. The cell suspension was sonicated and centrifuged at 7400 rpm at 4° C. for 30 minutes. The supernatant was isolated and 0.02% Triton-X 100 was added, and the mixture was then incubated with 1 ml 50% slurry of glutathione-Sepharose beads on a rotator at 4° C. for 30 minutes. The beads were spun down at 3000 rpm for 10 minutes, the supernatant was removed, and the beads were suspended in 1 ml cold PBS.
Approximately 5 μg of GST-DRIP205 or GST-RAC3 bound on glutathione-Sepharose beads and 4 μl ^35S-methionine-labeled mPPARγ1 were incubated with the indicated concentrations of AJA, GW347845, or vehicle alone in H buffer (20 mM Hepes [pH 7.7], 75 mM KCl, 0.1 mM EDTA, 2.5 mM MgCl2, 0.05% NP40, 0.1 mM methionine, 1 mM DTT) containing 1 mg/ml bovine serum albumin (BSA) on a rotator at 4° C. overnight. After three washes with cold PBS, the bound protein was eluted in SDS sample buffer and boiled for 10 min before SDS-PAGE and autoradiography. […]

human PPARδ = target: T2, human PPARδ (Homo sapiens, UniProt Q03181); experiment: Gal4-dependent MH100-Luc reporter, human PPARδ; assay type: cell-based
T2 construct: The Gal4-hPPAR LBD constructs were obtained from GlaxoSmithKline; host or cells: HEK293
T2 sequence (Q03181 211-439 limits assumed): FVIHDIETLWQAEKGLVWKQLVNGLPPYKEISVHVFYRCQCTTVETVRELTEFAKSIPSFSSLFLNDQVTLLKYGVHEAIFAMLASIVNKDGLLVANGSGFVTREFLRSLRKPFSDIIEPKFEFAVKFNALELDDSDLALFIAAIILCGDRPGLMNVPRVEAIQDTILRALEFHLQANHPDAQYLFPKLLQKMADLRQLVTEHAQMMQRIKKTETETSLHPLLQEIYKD
Procedure: The pGEX-DRIP205 (527˜970) was obtained from the Sloan-Kettering Cancer Center. The Gal4-hPPAR LBD constructs were obtained from GlaxoSmithKline, Research Triangle Park, NC. The IL8-Luciferase reporter was obtained from Celgene, San Diego, Calif. The plasmids mPPARα, mPPARγ1, mPPARδ , and hRXRα were in the pCMX vector (Umesono et al., Cell 65:1255-1266, 1991).
For PPARγ activation assay, HEK293 cells were plated in 12-well cell culture plates and maintained in Dulbecco's modified Eagle's medium (DMEM) supplemented with 10% fetal bovine serum (FBS) at 37° C. under 5% CO2. […] The average normalized luciferase activity was determined via triplicate experiments. […]
To further confirm activation of PPARγ by AJA, and also to determine PPARγ species specificity, the ability of AJA to activate the chimeric Gal4-DBD/PPAR fusion proteins on a Gal4-dependent MH100-Luc reporter was assessed (FIG. 4A). The PPARs were expressed as Gal4 DBD fusion proteins, which bind to the UAS promoter containing 4 copies of a synthetic Gal4 binding site upstream of the minimal thymidine kinase (TK) promoter. […] Transfected cells were treated with increasing concentrations of AJA from 10-60 μM and the luciferase activities were determined in triplicate experiments. […]

SMILES: CCCCCCC(C)(C)c1cc(O)c2c(c1)OC(C)(C)[C@@H]1CC=C(C(=O)O)C[C@@H]21 [AJA, dimethylheptyl-THC-11-oic acid]
- binding of PPARγ to GST-DRIP205 [1]: increased binding
- activation of human PPARδ (human PPARδ): did not activate
